What was measured:
[1] = association constant; cited from earlier work
[2] = association constant; cited from earlier work; remark: listed apart in the source
[3] = tested on: secondary iron overload from multiple transfusions; conditions: cited from earlier work
[4] = stability as solid and in concentrated solution; type: physicochemical
[5] = cited from earlier work

- stability as solid ([4]; solid): reasonably stable solid
Structure (SMILES): CC(=O)N(O)CCCCCNC(=O)CCC(=O)N(O)CCCCCNC(=O)CCC(=O)N(O)CCCCCN [Deferoxamine B, N′-[5-[[4-[[5-(acetylhydroxyamino)pentyl]amino]-1,4-dioxobutyl]hydroxyamino]pentyl]-N-(5-aminopentyl)-N-hydroxy-butanediamide]
- affinity for calcium (Ka) [1]: 10^2
- affinity for ferric iron (Ka) [2]: 10^31
- accumulation of hepatic iron ([3]; long term therapy): slows accumulation of hepatic iron
- progression of hepatic fibrosis ([3]; long term therapy): retards or eliminates progression of hepatic fibrosis
- iron excretion ([3]; patients with secondary iron overload from multiple transfusions): promotes iron excretion
- stability in solution ([4]; concentrated solution, on evaporation): prone to decomposition in concentrated solution
- oral absorption [5]: not well-absorbed orally
